Data as given in patent publication US20240246946A1, “MODULATORS OF TREX1” (Constellation Pharmaceuticals, Inc., priority 2021, published 2024).
Read-outs that look alike come from different tables or passages of the source.

Assays:
full length mouse TREX1 = target: T1, full length mouse TREX1 (Mus musculus, UniProt Q91XB0); test: mTREX1 Biochemical Assay (fluorescence, dsDNA substrate degradation)
T1 construct: N-terminally His-Tev tagged full length mouse TREX1; made in house; host or cells: E. coli
T1 sequence (Q91XB0 1-314): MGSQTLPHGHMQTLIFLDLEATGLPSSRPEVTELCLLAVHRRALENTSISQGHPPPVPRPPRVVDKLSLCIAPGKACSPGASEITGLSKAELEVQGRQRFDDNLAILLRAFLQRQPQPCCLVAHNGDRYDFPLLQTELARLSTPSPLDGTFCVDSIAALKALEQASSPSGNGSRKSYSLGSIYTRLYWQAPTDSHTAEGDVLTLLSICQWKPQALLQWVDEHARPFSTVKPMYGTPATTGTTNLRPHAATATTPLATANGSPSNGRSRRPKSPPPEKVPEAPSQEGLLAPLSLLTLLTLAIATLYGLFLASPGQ
Outline: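 Reaction run 18 h at 25° C. with 60 nM TEX615/quencher-labelled dsDNA and 6 pM mouse TREX1 in Tris buffer (pH 7.4, 5 mM MgCl2, 1.0% DMSO), enzyme having sat 4 h with compound across 10 concentrations. EDTA quench; substrate degradation measured as fluorescence increase.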

full length human TREX1 = target: T2, full length human TREX1 (Homo sapiens, UniProt Q9NSU2); test: hTREX1 Biochemical Assay (fluorescence, dsDNA substrate degradation)
T2 construct: N-terminally His-Tev tagged full length human TREX1; made in house; host or cells: E. coli
T2 sequence (Q9NSU2 1-314): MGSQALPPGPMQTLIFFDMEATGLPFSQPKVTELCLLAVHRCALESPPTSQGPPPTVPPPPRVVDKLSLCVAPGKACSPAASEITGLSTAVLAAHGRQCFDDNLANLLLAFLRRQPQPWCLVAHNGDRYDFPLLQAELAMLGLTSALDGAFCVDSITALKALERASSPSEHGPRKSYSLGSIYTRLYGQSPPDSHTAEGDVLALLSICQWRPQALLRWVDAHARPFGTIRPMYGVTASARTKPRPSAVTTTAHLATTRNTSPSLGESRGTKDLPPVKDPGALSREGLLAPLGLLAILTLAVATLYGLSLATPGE
Outline: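 Fluorescence rises as enzyme degrades a quenched TEX615-labelled dsDNA substrate (60 nM) in 50 mM Tris, 150 mM NaCl, 5 mM MgCl2, pH 7.4. Full-length His-Tev-tagged human TREX1, 4 pM, sits with compound 4 hours at 25° C before substrate; reaction 18 hours, stopped with EDTA.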

[1] = biochemical, read-out: mTREX1 IC50
[2] = biochemical, read-out: hTREX1 IC50

| SMILES | IC50 (full length mouse TREX1; [1]) [nM] | IC50 (full length human TREX1; [2]) [nM] | IC50 (full length mouse TREX1; mTREX1 IC50, biochemical) [nM] | IC50 (full length human TREX1; hTREX1 IC50, biochemical) [nM] |
| --- | --- | --- | --- | --- |
| CC(c1nc(C(=O)Nc2cnoc2)c(O)c(=O)n1C)C(c1cnn(CCN(C)C)c1)c1ccccc1C#N (single isomer, unassigned) [Example 33 D1E2] | > 10 | > 10 | – | – |
| CC(c1nc(C(=O)Nc2cnoc2)c(O)c(=O)n1C)C(c1cnn(C(F)F)c1)c1ccccc1C#N (single isomer, unassigned) [Example 38 D2E1] | > 10 | > 10 | – | – |
| COCCn1cc(C(c2cc(F)c(F)cc2Cl)C(C)c2nc(C(=O)Nc3cnoc3)c(O)c(=O)n2C)cn1 (single isomer, unassigned) [Example 73 D2E1] | > 10 | > 10 | – | – |
| CC(c1nc(C(=O)Nc2cnoc2)c(O)c(=O)n1C)C(c1cnccn1)c1ccccc1C#N (single isomer, unassigned) [Example 66 D2E1] | > 10 | 1 to 10 | – | – |
| CC(c1nc(C(=O)Nc2cnoc2)c(O)c(=O)n1C)C(c1ccccc1C#N)c1c(C#N)cnn1C (single isomer, unassigned) [Example 52 D1E2] | > 10 | > 10 | – | – |
| CCn1cc(C(c2ccc(F)cc2C#N)C(C)c2nc(C(=O)Nc3cnoc3)c(O)c(=O)n2C)cn1 (single isomer, unassigned) [Example 16 D2E1] | > 10 | > 10 | – | – |
| CC(c1nc(C(=O)Nc2cnoc2)c(O)c(=O)n1C)C(c1cnn(C)c1)c1cc(F)ccc1Cl (single isomer, unassigned) [Example 61 D2E2] | > 10 | > 10 | – | – |
| Cc1cncc(C(c2ccccc2C#N)C(C)c2nc(C(=O)Nc3cnoc3)c(O)c(=O)n2C)n1 (single isomer, unassigned) [Example 53 D2E1] | > 10 | > 10 | – | – |
| CC(c1nc(C(=O)Nc2cnoc2)c(O)c(=O)n1C)C(c1ncn(C)n1)c1ccccc1C#N (single isomer, unassigned) [Example 51 D2E1] | > 10 | > 10 | – | – |
| Cc1nn(C)cc1C(c1ccccc1C#N)C(C)c1nc(C(=O)Nc2cnoc2)c(O)c(=O)n1C (single isomer, unassigned) [Example 3 D2E1] | > 10 | > 10 | – | – |
| CC(c1nc(C(=O)Nc2cnoc2)c(O)c(=O)n1C)C(c1ccccc1C#N)c1ccnn1C (single isomer, unassigned) [Example 1 D2E1] | > 10 | > 10 | – | – |
| Cc1cc(C(c2ccccc2C#N)C(C)c2nc(C(=O)Nc3cnoc3)c(O)c(=O)n2C)ccn1 (single isomer, unassigned) [Example 6 D2E1] | > 10 | > 10 | – | – |
| Cc1nn(C)cc1C(c1cc(F)ccc1C#N)C(C)c1nc(C(=O)Nc2cnoc2)c(O)c(=O)n1C (single isomer, unassigned) [Example 57 D2E2] | > 10 | > 10 | – | – |
| CC(c1nc(C(=O)Nc2cnoc2)c(O)c(=O)n1C)C(c1cnn(C)c1)c1cc(Cl)ccc1C#N (single isomer, unassigned) [Example 26 D1E1] | > 10 | > 10 | – | – |
| Cc1ccnn1C(c1ccccc1Cl)C(C)c1nc(C(=O)Nc2cnoc2)c(O)c(=O)n1C (single isomer, unassigned) [Example 54 D1E2] | – | – | > 10 | > 10 |
| CC(c1nc(C(=O)Nc2cnoc2)c(O)c(=O)n1C)C(c1cnn(CCN2CCOCC2)c1)c1ccccc1C#N (single isomer, unassigned) [Example 20 D1E2] | > 10 | > 10 | – | – |
| CC(c1nc(C(=O)Nc2cnoc2)c(O)c(=O)n1C)C(c1cnn(C)c1)c1ccc(C(F)(F)F)cc1C#N (single isomer, unassigned) [Example 30 D2E2] | > 10 | > 10 | – | – |
| CC(c1nc(C(=O)Nc2cnoc2)c(O)c(=O)n1C)C(c1cnn(CCO)c1)c1ccccc1C#N (single isomer, unassigned) [Example 35 D1E2] | > 10 | > 10 | – | – |
| CC(c1nc(C(=O)Nc2cnoc2)c(O)c(=O)n1C)C(c1cnn(C)c1)c1cccnc1C#N (single isomer, unassigned) [Example 7 D1E2] | > 10 | > 10 | – | – |

More lines, main results first:

| IC50 (full length mouse TREX1; [1]) [nM] | IC50 (full length human TREX1; [2]) [nM] | SMILES | IC50 (full length mouse TREX1; mTREX1 IC50, biochemical) [nM] | IC50 (full length human TREX1; hTREX1 IC50, biochemical) [nM] |
| --- | --- | --- | --- | --- |
| > 10 | > 10 | CC(c1nc(C(=O)Nc2cnoc2)c(O)c(=O)n1C)C(c1cnn(C)c1)c1ccc(C(=O)N(C)C)cc1C#N (single isomer, unassigned) [Example 11 D2E1] | – | – |
| > 10 | > 10 | CC(c1nc(C(=O)Nc2cnoc2)c(O)c(=O)n1C)C(c1cnn(C)c1)c1cc(F)c(F)cc1C#N (single isomer, unassigned) [Example 25 D2E1] | – | – |
| > 10 | > 10 | CC(c1nc(C(=O)Nc2cnoc2)c(O)c(=O)n1C)C(c1cnn(C)c1)c1ccc(C(F)(F)F)cc1C#N (single isomer, unassigned) [Example 30 D2E1] | – | – |
| > 10 | > 10 | CC(c1nc(C(=O)Nc2cnoc2)c(O)c(=O)n1C)C(c1cnn(C)c1)c1cc(F)ccc1Cl (single isomer, unassigned) [Example 61 D2E1] | – | – |
| > 10 | > 10 | COCCn1ncc(C(c2ccccc2C#N)C(C)c2nc(C(=O)Nc3cnoc3)c(O)c(=O)n2C)c1C (single isomer, unassigned) [Example 69 D2E1] | – | – |
| > 10 | > 10 | CC(c1nc(C(=O)Nc2cnoc2)c(O)c(=O)n1C)C(c1cnn(C)c1)c1cc(Cl)ccc1C#N (single isomer, unassigned) [Example 26 D2E2] | – | – |
| > 10 | > 10 | COCCn1cc(C(c2cc(F)ccc2C#N)C(C)c2nc(C(=O)Nc3cnoc3)c(O)c(=O)n2C)cn1 (single isomer, unassigned) [Example 18 D2E1] | – | – |
| > 10 | > 10 | Cc1nn(C)cc1C(c1ccc(F)cc1C#N)C(C)c1nc(C(=O)Nc2cnoc2)c(O)c(=O)n1C (single isomer, unassigned) [Example 56 D1E2] | – | – |
| > 10 | < 1 | Cc1cn(C)nc1C(c1ccccc1C#N)C(C)c1nc(C(=O)Nc2cnoc2)c(O)c(=O)n1C (single isomer, unassigned) [Example 64 D1E1] | – | – |
| > 10 | > 10 | COC(C)(C)Cn1cc(C(c2ccccc2C#N)C(C)c2nc(C(=O)Nc3cnoc3)c(O)c(=O)n2C)cn1 (single isomer, unassigned) [Example 37 D1E2] | – | – |
| > 10 | > 10 | CC(c1nc(C(=O)Nc2cnoc2)c(O)c(=O)n1C)C(c1cnn(CCN2CCN(C(=O)OC(C)(C)C)CC2)c1)c1ccccc1C#N (single isomer, unassigned) [Example 21 D1E2] | – | – |
| > 10 | > 10 | CC(c1nc(C(=O)Nc2cnoc2)c(O)c(=O)n1C)C(c1cnn(C)c1)c1ccc(C(F)(F)F)cc1C#N (single isomer, unassigned) [Example 30 D1E2] | – | – |
| > 10 | > 10 | Cc1nn(C)cc1C(c1ccccc1C#N)C(C)c1nc(C(=O)Nc2cnoc2)c(O)c(=O)n1C (single isomer, unassigned) [Example 3 D1E2] | – | – |
| > 10 | > 10 | COC(C)(C)Cn1cc(C(c2ccccc2C#N)C(C)c2nc(C(=O)Nc3cnoc3)c(O)c(=O)n2C)cn1 (single isomer, unassigned) [Example 37 D2E1] | – | – |
| > 10 | > 10 | CC(c1nc(C(=O)Nc2cnoc2)c(O)c(=O)n1C)C(c1cnn(CC(C)(C)O)c1)c1ccccc1C#N (single isomer, unassigned) [Example 36 D2E2] | – | – |
| > 10 | > 10 | CC(c1nc(C(=O)Nc2cnoc2)c(O)c(=O)n1C)C(c1ccccc1C#N)c1cn(C)nc1C#N (single isomer, unassigned) [Example 10 D2E2] | – | – |
| > 10 | > 10 | CC(c1nc(C(=O)Nc2cnoc2)c(O)c(=O)n1C)C(c1cnn(CCCN(C)C)c1)c1ccccc1C#N (single isomer, unassigned) [Example 34 D1E2] | – | – |
| > 10 | > 10 | CCn1ncc(C(c2ccccc2C#N)C(C)c2nc(C(=O)Nc3cnoc3)c(O)c(=O)n2C)c1C (single isomer, unassigned) [Example 68 D2E2] | – | – |
| > 10 | > 10 | Cc1ccc(C(c2ccccc2C#N)C(C)c2nc(C(=O)Nc3cnoc3)c(O)c(=O)n2C)cn1 (single isomer, unassigned) [Example 5 D1E1] | – | – |
| > 10 | > 10 | CC(c1nc(C(=O)Nc2cnoc2)c(O)c(=O)n1C)C(c1cnn(C)c1)c1ccc(F)cc1C#N (single isomer, unassigned) [Example 15 D2E2] | – | – |
| > 10 | > 10 | COCCn1cc(C(c2cc(F)ccc2C#N)C(C)c2nc(C(=O)Nc3cnoc3)c(O)c(=O)n2C)cn1 (single isomer, unassigned) [Example 18 D2E2] | – | – |
